In patent US12268667B2, “JAK1 pathway inhibitors for the treatment of prurigo nodularis” (Incyte Corporation, priority 2021, dated 2025):

Legend:
[1] = target: human JAK1 (a.a. 837-1142) (Homo sapiens, UniProt P23458); experiment: In vitro JAK kinase assay (HTRF), JAK1; assay type: biochemical; details: 1 mM ATP
Experimental: (§1) The catalytic activity of JAK1, JAK2 or JAK3 are assayed by measuring the phosphorylation of a biotinylated peptide. The phosphorylated peptide was detected by homogenous time resolved fluorescence (HTRF). […] Reactions are carried out at room temperature for 1 hour and then stopped with 20 μL 45 mM EDTA, 300 nM SA-APC, 6 nM Eu-Py20 in assay buffer (Perkin Elmer, Boston, MA). Binding to the Europium labeled antibody takes place for 40 minutes and HTRF signal was measured on a Fusion plate reader (Perkin Elmer, Boston, MA).

[2] = target: human JAK2 (a.a. 828-1132) (Homo sapiens (Human), UniProt O60674); experiment: In vitro JAK kinase assay (HTRF), JAK2; assay type: biochemical; details: JAK2/JAK1 IC50 ratio at 1 mM ATP
Chain of human JAK2 (a.a. 828-1132) (O60674 828-1132): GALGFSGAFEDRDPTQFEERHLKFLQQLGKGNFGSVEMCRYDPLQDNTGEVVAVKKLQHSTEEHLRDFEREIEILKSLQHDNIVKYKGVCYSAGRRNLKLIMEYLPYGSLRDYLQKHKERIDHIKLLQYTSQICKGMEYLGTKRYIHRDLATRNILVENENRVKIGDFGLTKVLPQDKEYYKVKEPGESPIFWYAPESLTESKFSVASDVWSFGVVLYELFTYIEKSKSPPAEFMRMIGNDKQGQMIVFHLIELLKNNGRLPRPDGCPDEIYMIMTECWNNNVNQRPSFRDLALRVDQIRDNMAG
Experimental: as §1

| SMILES | IC50 [1] [nM] | JAK2/JAK1 [2] |
| --- | --- | --- |
| CC(C)(O)c1cc(O[C@H]2CC[C@@H](N3CC(CC#N)(n4cc(-c5ncnc6[nH]ccc56)cn4)C3)CC2)nc(C(F)(F)F)c1 [Compound 20, {1-(cis-4-{[4-(1-hydroxy-1-methylethyl)-6-(trifluoromethyl)pyridin-2-yl]oxy}cyclohexyl)-3-[4-(7H-pyrrolo[2,3-d]pyrimidin-4-yl)-1H-pyrazol-1-yl]azetidin-3-yl}acetonitrile] | < 10 | >10 |
| N#CC[C@]1(n2cc(-c3ncnc4[nH]ccc34)cn2)C[C@H](N2CCC(Oc3cc(CN4CCC[C@@H]4CO)cc(C(F)(F)F)n3)CC2)C1 [Compound 13, {trans-3-(4-{[4-{[(2R)-2-(hydroxymethyl)pyrrolidin-1-yl]methyl}-6-(trifluoromethyl)pyridin-2-yl]oxy}piperidin-1-yl)-1-[4-(7H-pyrrolo[2,3-d]pyrimidin-4-yl)-1H-pyrazol-1-yl]cyclobutyl}acetonitrile] | < 10 | >10 |
| N#CCC(CN1CCN(C(=O)c2ccc(C#N)cc2F)CC1)n1ccc(-c2ncnc3[nH]ccc23)c1 (centres unmarked) [Compound 9, 4-[(4-{3-cyano-2-[3-(7H-pyrrolo[2,3-d]pyrimidin-4-yl)-1H-pyrrol-1-yl]propyl}piperazin-1-yl)carbonyl]-3-fluorobenzonitrile] | < 10 | >10 |
| N#CCC1(n2cc(-c3ncnc4[nH]ccc34)cn2)CN(C2CCN(C(=O)c3ccnc(C(F)(F)F)n3)CC2)C1 [Compound 3, [3-[4-(7H-pyrrolo[2,3-d]pyrimidin-4-yl)-1H-pyrazol-1-yl]-1-(1-{[2-(trifluoromethyl)pyrimidin-4-yl]carbonyl}piperidin-4-yl)azetidin-3-yl]acetonitrile] | < 10 | >10 |
| N#CCC(C1CCN(c2nc3cccnc3o2)C1)n1cc(-c2ncnc3[nH]ccc23)cn1 (centres unmarked) [Compound 7, 3-(1-[1,3]oxazolo[5,4-b]pyridin-2-ylpyrrolidin-3-yl)-3-[4-(7H-pyrrolo[2,3-d]pyrimidin-4-yl)-1H-pyrazol-1-yl]propanenitrile] | < 10 | >10 |
| N#CCC(C1CCN(c2cccc(Cl)n2)C1)n1cc(-c2ncnc3[nH]ccc23)cn1 (single isomer, unassigned) [Compound 6, 3-[1-(6-chloropyridin-2-yl)pyrrolidin-3-yl]-3-[4-(7H-pyrrolo[2,3-d]pyrimidin-4-yl)-1H-pyrazol-1-yl]propanenitrile] | < 10 | >10 |

The next lines start with the values.

| IC50 [1] [nM] | JAK2/JAK1 [2] | SMILES |
| --- | --- | --- |
| < 100 | >10 | C[C@@H](O)c1nc2cnc3ccsc3c2n1[C@H]1CC[C@H](CC#N)OC1 [Compound 5, ((2R,5S)-5-{2-[(1R)-1-hydroxyethyl]-1H-imidazo[4,5-d]thieno[3,2-b]pyridin-1-yl}tetrahydro-2H-pyran-2-yl)acetonitrile] |
| < 10 | >10 | N#CCC1(n2cc(-c3ncnc4[nH]ccc34)cn2)CN(C2CCN(C(=O)Nc3ccc(F)cc3C(F)(F)F)CC2)C1 [Compound 2, 4-{3-(Cyanomethyl)-3-[4-(7H-pyrrolo[2,3-d]pyrimidin-4-yl)-1H-pyrazol-1-yl]azetidin-1-yl}-N-[4-fluoro-2-(trifluoromethyl)phenyl] piperidine-1-carboxamide] |
| < 10 | >10 | N#CC[C@]1(n2cc(-c3ncnc4[nH]ccc34)cn2)C[C@H](N2CCN(C(=O)c3ccnc(C(F)(F)F)n3)CC2)C1 [Compound 10, [trans-1-[4-(7H-pyrrolo[2,3-d]pyrimidin-4-yl)-1H-pyrazol-1-yl]-3-(4-{[2-(trifluoromethyl)pyrimidin-4-yl]carbonyl}piperazin-1-yl)cyclobutyl]acetonitrile] |
| < 10 | >10 | N#CCC(CN1CCN(C(=O)c2ccc(C#N)cc2F)CC1)n1cc(-c2ncnc3[nH]ccc23)cn1 (centres unmarked) [Compound 8, 4-[(4-{3-cyano-2-[4-(7H-pyrrolo[2,3-d]pyrimidin-4-yl)-1H-pyrazol-1-yl]propyl}piperazin-1-yl)carbonyl]-3-fluorobenzonitrile] |
